# Laboratory results published in ChEMBL document CHEMBL1143244, “Conformational studies of 3-amino-1-alkyl-cyclopentane carboxamide CCR2 antagonists leading to new spirocyclic antagonists” (Bioorg Med Chem Lett, 2008).
# Key:
# [1] = target: T1, C-C chemokine receptor type 2 (Homo sapiens, UniProt P41597); assay: Displacement of [125I]MCP1 from human CCR2 expressed in human monocytes at 1 uM; format: cell-based
# Target sequence in this assay (P41597 whole entry, looked up): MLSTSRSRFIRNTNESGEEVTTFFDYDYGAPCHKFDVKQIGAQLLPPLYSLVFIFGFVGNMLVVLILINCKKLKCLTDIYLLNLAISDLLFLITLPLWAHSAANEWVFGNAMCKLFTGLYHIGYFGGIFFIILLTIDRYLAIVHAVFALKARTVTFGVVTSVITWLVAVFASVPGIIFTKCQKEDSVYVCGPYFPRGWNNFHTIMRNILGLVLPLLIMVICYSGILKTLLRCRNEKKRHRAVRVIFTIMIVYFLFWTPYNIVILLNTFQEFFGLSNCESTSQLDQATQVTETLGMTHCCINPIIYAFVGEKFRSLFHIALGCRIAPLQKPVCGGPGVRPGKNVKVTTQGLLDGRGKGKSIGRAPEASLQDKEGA
# [2] = target: T1, C-C chemokine receptor type 2; assay: Displacement of [125I]MCP1 from human CCR2 expressed in human monocytes; format: cell-based
# Target sequence in this assay (P41597 whole entry): as the sequence (P41597 whole entry, looked up) above
inhibition [1] [%],IC50 [2] [nM],SMILES
18,,C[C@H]1CN([C@@H]2CCC3(CCN(Cc4cc(F)cc(C(F)(F)F)c4)C3=O)C2)CC[C@@]12C=Cc1ccccc12 (some centres undefined)
,4.6,C[C@H]1CN([C@@H]2CC[C@@]3(CCO[C@H]3OCc3cc(F)cc(C(F)(F)F)c3)C2)CC[C@@]12C=Cc1ccccc12
,1.4,CC(C)[C@]1(C(=O)NCc2cc(F)cc(C(F)(F)F)c2)CC[C@@H](N2CC[C@@]3(C=Cc4ccccc43)[C@@H](C)C2)C1
,115,C[C@H]1CN([C@@H]2CC[C@@]3(CCO[C@@H]3OCc3cc(F)cc(C(F)(F)F)c3)C2)CC[C@@]12C=Cc1ccccc12
